Laboratory results from article doi:10.1101/2025.03.27.645620v1 (biorxiv, 2025).
Like-named read-outs stand apart in the source and are kept apart here.

Columns and labels:
[1] = biological target: WT-hSTING-CTT (Homo sapiens, UniProt Q86WV6, H232R); assay: surface plasmon resonance; type: binding; settings: labelled compound; biotin-tagged SB […] used
[2] = system: mSTING; assay: cells; design: species or system THP1; settings: Homo sapiens, THP-1, 20 h, read-out: SB 11285 EC50 (µM)
[3] = system: human PBMCs; assay: cells; settings: PBMC, 24 h
[4] = system: hSTING AQ; assay: cells; design: species or system THP1; settings: Homo sapiens, THP-1, 20 h, read-out: SB 11285 EC50 (µM)
[5] = system: murine splenocytes; assay: cells; design: species or system mouse splenocytes; settings: Mus musculus, Splenocyte, 24 h
[6] = system: hSTING-WT; assay: cells; design: species or system THP1; settings: Homo sapiens, THP-1, 20 h, read-out: SB 11285 EC50 (µM)

Sequence of WT-hSTING-CTT (Q86WV6 139-379 H232R): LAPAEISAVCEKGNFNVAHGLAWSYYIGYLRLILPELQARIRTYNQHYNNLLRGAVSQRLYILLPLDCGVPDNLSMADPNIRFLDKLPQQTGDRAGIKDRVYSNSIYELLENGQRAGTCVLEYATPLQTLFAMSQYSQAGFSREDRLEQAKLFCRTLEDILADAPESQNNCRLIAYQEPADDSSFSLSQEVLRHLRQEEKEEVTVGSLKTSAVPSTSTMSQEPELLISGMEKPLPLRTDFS

For biotin-tagged SB 11285, the Kd [1] was ~122 nM.

Compound `NC1CC2CCC(C1)C2O` (mixture of isomers) [SB 11285] has an EC50 [2] of 0.15 µM, an EC50 ([3]; read-out: SB 11285 EC50(μM), GM-CSF) of 0.4 ± 0.3 µM and an EC50 ([3]; read-out: SB 11285 EC50(μM), IFN-α) of 0.9 ± 0.7 µM. For the same compound, the EC50 ([3]; read-out: SB 11285 EC50(μM), IFN-β) was 0.3 ± 0.2 µM, the EC50 ([3]; read-out: SB 11285 EC50(μM), IFN-γ) was 1 ± 0.4 µM and the EC50 ([3]; read-out: SB 11285 EC50(μM), IL-10) was 0.03 ± 0.03 µM. It also gave an EC50 ([3]; read-out: SB 11285 EC50(μM), IL-12p70) of 0.8 ± 0.3 µM, an EC50 ([3]; read-out: SB 11285 EC50(μM), IL-18) of 0.7 ± 0.1 µM and an EC50 ([3]; read-out: SB 11285 EC50(μM), MIP-1α) of 0.05 ± 0.04 µM. It also gave an EC50 ([3]; read-out: SB 11285 EC50(μM), MIP-1β) of 0.06 ± 0.09 µM, an EC50 ([3]; read-out: SB 11285 EC50(μM), RANTES) of 0.08 ± 0.06 µM and an EC50 [4] of 0.43 µM. It also gave an EC50 ([5]; read-out: SB 11285 EC50 (μM), IFN-α) of 0.2 ± 0.1 µM, an EC50 ([5]; read-out: SB 11285 EC50 (μM), IL-18) of 0.02 ± 0.02 µM and an EC50 ([5]; read-out: SB 11285 EC50 (μM), IL-31) of 0.006 ± 0.003 µM. The EC50 ([5]; read-out: SB 11285 EC50 (μM), IP-10) was 0.03 ± 0.02 µM, the EC50 ([5]; read-out: SB 11285 EC50 (μM), TNF-α) was 0.04 ± 0.06 µM and the EC50 [6] was 0.008 µM.

In the case of `Nc1ncnc2c1ncn2[C@@H]1O[C@@H]2COP(O)(=S)O[C@@H]3[C@H](O)[C@@H](COP(O)(=S)O[C@H]2[C@H]1O)O[C@H]3n1cnc2c(N)ncnc21` (stereo partly shown) [ADU-S100], the EC50 ([3]; read-out: EC50(μM), GM-CSF) is reported as 2.9 ± 0.4 µM, the EC50 ([3]; read-out: EC50(μM), IFN-α) is reported as 2.6 ± 2.9 µM and the EC50 ([3]; read-out: EC50(μM), IFN-β) is reported as > 10 µM. For the same compound, the EC50 ([3]; read-out: EC50(μM), IL-6) was 2.3 ± 0.6 µM, the EC50 ([3]; read-out: EC50(μM), IL-10) was 0.8 ± 0.6 µM and the EC50 ([3]; read-out: EC50(μM), IP-10) was 0.4 ± 0.3 µM. For the same compound, the EC50 ([3]; read-out: EC50(μM), MIP-1α) was 1.1 ± 0.6 µM, the EC50 ([3]; read-out: EC50(μM), MIP-1β) was 1.2 ± 0.8 µM and the EC50 ([3]; read-out: EC50(μM), RANTES) was 0.7 ± 0.5 µM. For the same compound, the EC50 ([5]; read-out: EC50 (μM), CXCL1) was 1.6 ± 0.9 µM, the EC50 ([5]; read-out: EC50 (μM), IFN-α) was > 10 µM and the EC50 ([5]; read-out: EC50 (μM), IL-6) was 1.7 ± 1.7 µM. The EC50 ([5]; read-out: EC50 (μM), IL-17A) was 0.3 ± 0.2 µM, the EC50 ([5]; read-out: EC50 (μM), IL-18) was 0.6 ± 0.4 µM and the EC50 ([5]; read-out: EC50 (μM), MIP-1α) was 0.5 ± 0.4 µM. The EC50 ([5]; read-out: EC50 (μM), MIP-1β) was 0.7 ± 0.3 µM, the EC50 ([5]; read-out: EC50 (μM), RANTES) was 0.1 ± 0.1 µM and the EC50 ([5]; read-out: EC50 (μM), TNF-α) was 1.4 ± 0.5 µM.
